Laboratory results: patent publication US20120070401A1, “Composition and Method for Promoting Wound Healing” (priority 2010, published 2012)

System: corneal reepithelialization
Assay: rabbit corneal wound healing model (corneal reepithelialization after 9.5-mm epithelial wound, fluorescein-stained wound area)
Type: in vivo, New Zealand White rabbits
Conditions: n=10 per group
Text: Animals. One hundred and ten pathogen-free New Zealand White rabbits were obtained from a commercial laboratory. Animals were at least 18 weeks old and 2-3 kg body weight at the time of treatment.
Pre-Treatment Examinations. Prior to placement on study, each animal underwent a pre-treatment ophthalmic examination (slit lamp with fluorescein staining). […] Animals were then randomly assigned to eleven treatment groups (10 animals per group) according to a modified Latin square design. Animals were fasted at least 12 hours prior to corneal wound surgery.
Wounding Procedure. […]
Corneal Wound Evaluation. The corneal wound condition was evaluated immediately post wounding and at 12, 24, 36, 48, 60, and 72 hours. […] From the photographs, the perimeter of the wounds was determined using a Mechanical Polar Planimeter (LASISCO; Los Angeles, Calif.).
Numerical results were expressed as mean±SEM, n=10, unless indicated otherwise. Data were analyzed by a two-way ANOVA with repeated measures followed by the Tukey-Kramer test. In addition, overall effects were evaluated by analyzing integrated responses calculated as the areas under the curve (AUC) for each treatment over the time course. […] Integrated responses were analyzed by a one-way ANOVA followed by the Tukey-Kramer test. […]

## benzalkonium chloride [BAK]
0 to 72 hours, trapezoidal rule
  integrated wound area (AUC over the time course) compared to the saline control: no significant effects
topical, 14 instillations over 72 hours, time points 12-72 hours
  effect on corneal reepithelialization time-course (wound area) compared to the saline control: No significant effects
